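Cells were grown in 96-well plates and exposed to each compound for 48 hours at five concentrations; endpoints were interpolated linearly between bracketing concentrations, or set to the highest concentration if not reached. GI50 is the concentration that inhibits growth by half. TGI: total growth inhibition.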
Columns and labels:
Test in all cases: NCI-60 cell line screen, 48 h
[1] = test system: SF-539 CNS
[2] = test system: SK-MEL-28 melanoma
[3] = test system: CCRF-CEM leukemia
[4] = test system: SNB-75 CNS
[5] = test system: RPMI-8226 leukemia
[6] = test system: KM12 colon
[7] = test system: ACHN renal
[8] = test system: A498 renal
[9] = test system: LOX IMVI melanoma
[10] = test system: K-562 leukemia
[11] = test system: PC-3 prostate
[12] = test system: NCI-H226 lung
[13] = test system: UACC-62 melanoma
[14] = test system: SF-295 CNS
[15] = test system: DU-145 prostate
[16] = test system: SK-MEL-5 melanoma
[17] = test system: SR leukemia
[18] = test system: OVCAR-5 ovarian
[19] = test system: SNB-19 CNS
[20] = test system: EKVX NSCLC
[21] = test system: SK-MEL-2 melanoma
[22] = test system: HOP-92 NSCLC
[23] = test system: MOLT-4 leukemia
[24] = test system: UACC-257 melanoma
[25] = test system: SN12C renal
[26] = test system: MALME-3M melanoma
[27] = test system: OVCAR-8 ovarian
[28] = test system: OVCAR-3 ovarian

CN1C(=O)N(C)C2C1NN=c1s/c(=C\c3ccccc3F)c(=O)n12 (stereo not given)
GI50 [1]: 217 nM | TGI [1]: 639 nM | GI50 [2]: 5750 nM | TGI [2]: > 100000 nM | GI50 [3]: 335 nM | TGI [3]: > 100000 nM | GI50 [4]: 80.7 nM | TGI [4]: 547 nM | GI50 [5]: 364 nM | TGI [5]: > 66800 nM | GI50 [6]: 198 nM | TGI [6]: > 60200 nM | GI50 [7]: 684 nM | TGI [7]: > 100000 nM | GI50 [8]: 175 nM | TGI [8]: 929 nM | GI50 [9]: 565 nM | TGI [9]: > 100000 nM | GI50 [10]: 117 nM | TGI [10]: > 100000 nM | GI50 [11]: 296 nM | TGI [11]: > 100000 nM | GI50 [12]: 1230 nM | TGI [12]: > 100000 nM | GI50 [13]: 371 nM | TGI [13]: > 100000 nM | GI50 [14]: 186 nM | TGI [14]: > 100000 nM | GI50 [15]: 325 nM | TGI [15]: 23900 nM | GI50 [16]: 188 nM | TGI [16]: 4110 nM | GI50 [17]: 93 nM | TGI [17]: > 100000 nM | GI50 [18]: 496 nM | TGI [18]: > 100000 nM | GI50 [19]: 448 nM | TGI [19]: > 100000 nM | GI50 [20]: 398 nM | TGI [20]: > 100000 nM | GI50 [21]: 629 nM | TGI [21]: > 100000 nM | GI50 [22]: 8510 nM | TGI [22]: > 100000 nM | GI50 [23]: 520 nM | TGI [23]: > 100000 nM | GI50 [24]: > 100000 nM | TGI [24]: > 100000 nM | GI50 [25]: 671 nM | TGI [25]: > 100000 nM | GI50 [26]: 325 nM | TGI [26]: > 100000 nM | GI50 [27]: 516 nM | TGI [27]: > 100000 nM | GI50 [28]: 170 nM

Reference: PubChem BioAssay (NCI)
